The values that follow come from US12653817B2, “Pharmaceutical composition comprising protein kinase inhibitor and chemotherapeutic drug and use thereof” (SHENZHEN CHIPSCREEN BIOSCIENCES CO., LTD., priority 2020, dated 2026).

“Also recorded” adds a separate entry of the source.

Series [1] relates to relapsed and refractory ovarian cancer. Nature of the series: Phase Ib single-arm clinical trial of chiauranib capsules, efficacy. It is filed as in vivo, human. From the text:
A single-arm, multi-center, non-randomized, open-label phase Ib trial.
Main inclusion criteria: Patients with histologically diagnosed epithelial ovarian cancer, fallopian tube cancer or primary peritoneal carcinoma; patients who had received platinum-based chemotherapy regimens, and platinum-resistant patients who achieved progressive or relapsed disease after had received ≥2 different chemotherapy regimens; platinum-sensitive patients who achieved progressive or relapsed disease after had received ≥2 different chemotherapy regimens, or who refused to receive further chemotherapy.
(§1) Medication regimen: 50 mg of chiauranib was taken orally every morning on an empty stomach, once a day, every 28 days as a treatment cycle, and there was no drug withdrawal interval between the treatment cycles. The treatment was continued until any of the following conditions occurred (whichever occurred first): progressive disease, intolerable toxicity reaction, death, withdrawal of informed consent, or loss to follow-up.
Efficacy indicators: The efficacy indicators were evaluated by investigators and imaging experts according to RECIST1.1 criteria.
Main: Objective response rate (ORR).
Secondary: Progression-free survival (PFS), time to progression (TTP), 16-week disease control rate (16W-DCR), duration of response (DOR) of disease, overall survival (OS).
Twenty-five patients with relapsed and refractory ovarian cancer were enrolled in the study, and the number of previous treatment regimens they had received was ≥3. 3 cases (12.0%) were sensitive to the last platinum-containing chemotherapy, and 22 cases (88.0%) were refractory or resistant to the last platinum-containing chemotherapy. As of the cut-off date for trial data (Mar. 20, 2019), 16 patients (64.0%) discontinued the treatment due to progressive disease, 3 patients (12.0%) discontinued the treatment due to adverse events, and other reasons for the discontinuation of the treatment comprised voluntary withdrawal of subjects, end of trial and loss to follow-up.
The full analysis set (FAS) and safety data set (SS) were used for analysis, and 25 subjects were included in each data set.

The nature of series [2]: Phase Ib single-arm clinical trial of chiauranib capsules, safety evaluation. The class given is in vivo. The procedure:
as §1
The safety indicators comprised adverse events, vital signs, ECG and abnormal laboratory results, which were evaluated according to CTCAE V4.03. Twenty-five patients with relapsed and refractory ovarian cancer were enrolled in the study and included in the safety data set (SS) for analysis.

The test system of series [3] is platinum-refractory/resistant relapsed advanced ovarian cancer. Conditions: historical data; cited from earlier work.
Setting [4] is: 25 patients, cut-off Mar. 20, 2019.
[5] abbreviates: chiauranib 50 mg orally once a day, N = 25, cut-off Mar. 20, 2019.
Setting [6] is: increase in serum creatine phosphokinase MB, 25 subjects.

`COc1ccc2c(Oc3ccc4c(C(=O)Nc5ccccc5N)cccc4c3)ccnc2c1` [chiauranib, N-(2-aminophenyl)-6-(7-methoxyquinoline-4-oxy)-1-naphthamide]: in series [1] (setting [4]), the “Discontinued the treatment due to progressive disease, %” value came to 64.0% and the “Discontinued the treatment due to progressive disease, patients” value worked out at 16 patients. In addition, in series [1] (N = 25, cut-off Mar. 20, 2019), the “Duration of response, Event” value was 0; the “Overall survival, Event” value worked out at 11; the “Progression-free survival, Event (progressive disease or death)” value came out at 12; the “Time to progression, Event” value came to 11. Further, in series [1] (chiauranib 50 mg orally once a day, N = 25), the “16-week disease control rate” value came out at 32.0%. In addition, the Objective response rate in series [1] (chiauranib 50 mg orally once a day, N = 25, RECIST1.1) was determined as 4.0%. In addition, in series [1] (setting [5]), the “Progression-free survival, median” value came to 3.7 month and the “Time to progression, median” value worked out at 3.7 month. Besides, in series [1] (subjects with platinum-refractory/resistant relapsed ovarian cancer who had received multiple chemotherapies), the “Efficacy conclusion, single-agent” value is “shown preliminary efficacy in tumor response; also recorded: showed primary efficacy of tumor response”. In addition, in series [2] (25 subjects), the “Abdominal pain, %” value is reported as 52.0%; the “Abdominal pain, cases” value came to 13 cases; the “Adverse event leading to the discontinuation of the treatment, %” value was determined as 12.0%; the “Adverse event leading to the discontinuation of the treatment, patients” value came out at 3 patients. For the same compound, in series [2] (25 subjects), the “Adverse event leading to the suspension of chiauranib, %” value is 40.7%; the “Adverse event leading to the suspension of chiauranib, patients” value was determined as 11 patients; the “At least one common adverse event, %” value came to 100%; the “At least one common adverse event, subjects” value came to 25 subjects. For the same compound, in series [2] (25 subjects), the “Diarrhea, %” value turned out to be 72.0%; the “Diarrhea, cases” value came out at 18 cases; the “Discontinuation due to bile duct obstruction” value is reported as “dysfunction syndrome, 1 case of bile duct”; the “Discontinuation due to electrolyte disturbance” value is “obstruction, and 1 case of electrolyte”. In series [2] (25 subjects), the “Fatigue, %” value came out at 64.0%; the “Fatigue, cases” value stood at 16 cases; the “Hypertension, %” value worked out at 44.0%; the “Hypertension, cases” value is recorded as 11 cases. Also, in series [2] (25 subjects), the “Loss of appetite, %” value was determined as 64.0%; the “Loss of appetite, cases” value was determined as 16 cases; the “Proteinuria, %” value is recorded as 60.0%; the “Proteinuria, cases” value is recorded as 15 cases. For the same compound, in series [2] (25 subjects), the “Related serious adverse event: hypokalemia” value was “electrolyte disturbance, 1 case of hypokalemia,”; the “Serious adverse events judged to be related to chiauranib (definitely related, possibly related, undetermined), cases” value was found to be 5 cases; the “Suspension due to decreased appetite” value was “ventricular dysfunction, 1 case of infection, 1”; the “Suspension due to increased alanine aminotransferase” value turned out to be 1 case. For the same compound, in series [2] (25 subjects), the “Suspension due to infection” value was “ventricular dysfunction, 1 case of infection, 1”; the “Suspension due to proteinuria” value is given as 2 cases; the “Weight loss, %” value came to 56.0%; the “Weight loss, cases” value amounted to 14 cases. Also, in series [2] (25 subjects, CTCAE V4.03), the “Serious adverse events, % of patients” value is recorded as 32.0%; the “Serious adverse events, cases” value was found to be 9 cases; the “Serious adverse events, patients” value was 8 patients. In addition, in series [2] (setting [6]), the “Adverse event leading to the reduction of the dosage of chiauranib, %” value came to 4.0% and the “Adverse event leading to the reduction of the dosage of chiauranib, patients” value is given as “One”. In addition, the “Adverse event leading to death, %” value in series [2] (multiple organ dysfunction syndrome, 25 subjects) came out at 4.0%. Also, in series [2] (multiple organ dysfunction syndrome, relation to chiauranib undetermined, 25 subjects), the “Adverse event leading to death, patients” value is listed as “One”. Besides, in series [2] (toxicity characteristics similar to VEGFR target drugs), the “Tolerability of single-agent therapy” value was “can be tolerated by most subjects”.
As for `COc1cc([C@@H]2c3cc4c(cc3[C@@H](O[C@@H]3O[C@@H]5CO[C@@H](C)O[C@H]5[C@H](O)[C@H]3O)[C@H]3COC(=O)[C@H]23)OCO4)cc(OC)c1O` [etoposide], the “Response rate of single-agent” value in series [3] is given as “about 27%”.
Consider `CC(=O)O[C@H]1C(=O)[C@@]2(C)[C@H]([C@H](OC(=O)c3ccccc3)[C@]3(O)C[C@H](OC(=O)[C@H](O)[C@@H](NC(=O)c4ccccc4)c4ccccc4)C(C)=C1C3(C)C)[C@]1(OC(C)=O)CO[C@@H]1C[C@@H]2O` [paclitaxel], for which, in series [3], the “Response rate of single-agent” value is on record as “about 21%”.
